This test has as its target Recombinant Human Poly(ADP-Ribose) Polymerase (PARP), PARP-1 (Homo sapiens (Human), UniProt P09874). The note with it: read-out: PARP-1 (Ki).
The mark [1] stands for this setting: Table 1, text calls the values EC50s.

Our source for the Ki values is patent US9283222B2 (priority 2006, dated 2016).

Read-outs that look alike come from different tables or passages of the source.

Chain of Recombinant Human Poly(ADP-Ribose) Polymerase (PARP), PARP-1 (P09874 whole entry): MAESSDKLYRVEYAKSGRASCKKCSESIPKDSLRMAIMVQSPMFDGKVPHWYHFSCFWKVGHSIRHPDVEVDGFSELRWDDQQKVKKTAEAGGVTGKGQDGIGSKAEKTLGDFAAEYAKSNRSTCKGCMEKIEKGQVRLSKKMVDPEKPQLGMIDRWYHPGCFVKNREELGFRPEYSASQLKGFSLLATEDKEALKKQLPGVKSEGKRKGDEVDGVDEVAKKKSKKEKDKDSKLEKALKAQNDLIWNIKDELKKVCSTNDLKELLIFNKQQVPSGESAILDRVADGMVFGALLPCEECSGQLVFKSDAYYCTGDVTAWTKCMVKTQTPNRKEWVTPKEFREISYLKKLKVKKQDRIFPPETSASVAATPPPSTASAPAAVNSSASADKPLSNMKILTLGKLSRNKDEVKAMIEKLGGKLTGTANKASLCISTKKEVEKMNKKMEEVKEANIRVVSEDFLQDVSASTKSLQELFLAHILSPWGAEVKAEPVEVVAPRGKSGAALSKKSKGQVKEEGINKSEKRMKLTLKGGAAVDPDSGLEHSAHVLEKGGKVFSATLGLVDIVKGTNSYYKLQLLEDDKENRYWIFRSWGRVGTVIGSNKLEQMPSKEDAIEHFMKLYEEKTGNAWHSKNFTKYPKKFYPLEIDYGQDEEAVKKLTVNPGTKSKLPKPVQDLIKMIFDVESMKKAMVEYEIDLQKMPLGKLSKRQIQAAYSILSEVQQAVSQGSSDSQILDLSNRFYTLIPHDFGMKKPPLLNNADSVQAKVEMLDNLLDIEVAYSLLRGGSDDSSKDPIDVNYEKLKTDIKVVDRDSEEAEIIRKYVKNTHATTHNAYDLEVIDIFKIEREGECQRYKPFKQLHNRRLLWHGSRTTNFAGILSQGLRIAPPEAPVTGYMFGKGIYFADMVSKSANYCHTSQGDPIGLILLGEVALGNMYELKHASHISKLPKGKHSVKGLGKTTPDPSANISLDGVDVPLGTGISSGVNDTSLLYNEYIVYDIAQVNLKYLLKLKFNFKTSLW
Protocol: Nicotinamide[2,5′,8-3H]adenine dinucleotide and strepavidin SPA beads were purchased from Amersham Biosiences. […] NAD^+, histone, aminobenzamide, 3-amino benzamide and Calf Thymus DNA (dcDNA) were purchased from Sigma. Stem loop oligonucleotide containing MCAT sequence was obtained from Qiagen. The oligos were dissolved to 1 mM in annealing buffer containing 10 mM Tris HCl pH 7.5, 1 mM EDTA, and 50 mM NaCl, incubated for 5 minutes at 95° C., and annealed at 45° C. for 45 minutes. […] Biotinylated histone H1 was prepared by treating the protein with Sulfo-NHS-LC-Biotin from Pierce. The biotinylation reaction was conducted by slowly and intermittently adding 3 equivalents of 10 mM Sulfo-NHS-LC-Biotin to 100 μM Histone H1 in phosphate-buffered saline, pH 7.5, at 4° C. with gentle vortexing over 1 minute followed by subsequent 4° C. incubation for 1 hour. Streptavidin coated (FlashPlate Plus) microplates were purchased from Perkin Elmer.
PARP1 assay was conducted in PARP assay buffer containing 50 mM Tris pH 8.0, 1 mM DTT, 4 mM MgCl2. […] Auto reactions utilizing SPA bead-based detection were carried out in 100 μL volumes in white 96 well plates.

As to `CC(Cc1n[nH]c(=O)c2c1CCCC2)c1ccc(F)c(-c2cccc(CNS(C)(=O)=O)c2)c1` (stereo not shown) [Example 297], the Ki under setting [1] is 1440 nM.
On to `O=c1[nH]nc(Cc2cc[n+]([O-])c(Br)c2)c2c1CCCC2` [Example 132, 4-((2-bromo-1-oxidopyridin-4-yl)methyl)-5,6,7,8-tetrahydrophthalazin-1(2H)-one], for which the Ki under setting [1] is 1040 nM.
Consider `Cc1cc(NC(=O)c2cccc(Cc3n[nH]c(=O)c4c3CCCC4)c2)ccc1Cl` [Example 343, N-(4-chloro-3-methylphenyl)-3-((4-oxo-3,4,5,6,7,8-hexahydrophthalazin-1-yl)methyl)benzamide], for which the Ki under setting [1] is 87 nM.
With `Cc1cncc(N2CCN(C(=O)c3cc(Cc4n[nH]c(=O)c5c4CCCC5)ccc3F)CC2)n1` [Example 499, 4-(4-fluoro-3-{[4-(6-methylpyrazin-2-yl)piperazin-1-yl]carbonyl}benzyl)-5,6,7,8-tetrahydrophthalazin-1(2H)-one], the Ki under setting [1] was found to be 1.6 nM.
On the same count and under the same terms, under `O=C(c1cc(Cc2n[nH]c(=O)c3c2CCCC3)ccc1F)N1CCN(C(=O)c2cccnc2Cl)CC1` [Example 755, 4-[3-({4-[(2-chloropyridin-3-yl)carbonyl]piperazin-1-yl}carbonyl)-4-fluorobenzyl]-5,6,7,8-tetrahydrophthalazin-1(2H)-one] stands 1.5 nM; under `CC(C)(C)OC(=O)N1CCN(C(=O)OCc2ccccc2)CC1Cc1n[nH]c(=O)c2c1CCCC2` (stereo not shown) [Example 258, 4-benzyl 1-tert-butyl 2-((4-oxo-3,4,5,6,7,8-hexahydrophthalazin-1-yl)methyl)piperazine-1,4-dicarboxylate], 1770 nM.
For the compound `CCN1CCN(C(=O)c2cc(Cc3n[nH]c(=O)c4c3CCCC4)ccc2F)CC1` [Example 580, 4-{3-[(4-ethylpiperazin-1-yl)carbonyl]-4-fluorobenzyl}-5,6,7,8-tetrahydrophthalazin-1(2H)-one], under setting [1], the Ki worked out at 1.8 nM.
As to `CC(C)NC(=O)c1cccc(Cc2n[nH]c(=O)c3c2CCCC3)n1` [Example 82, N-isopropyl-6-((4-oxo-3,4,5,6,7,8-hexahydrophthalazin-1-yl)methyl)pyridine-2-carboxamide], the Ki under setting [1] came out at 691 nM.
For `CCOc1ccc(C(=O)Nc2cccc(Cc3n[nH]c(=O)c4c3CCCC4)c2)cc1` [Example 228, 4-ethoxy-N-(3-((4-oxo-3,4,5,6,7,8-hexahydrophthalazin-1-yl)methyl)phenyl)benzamide], the Ki under setting [1] turned out to be 98 nM.
With `CC(=O)Nc1cccc(-c2cc(Cc3n[nH]c(=O)c4c3CCCC4)ccc2F)c1` [Example 248], under setting [1], the inhibition constant (Ki) is 2 nM.
`COC(=O)c1cc(Cc2n[nH]c(=O)c3c2NCCC3)ccc1F` [Example 465, methyl 2-fluoro-5-((5-oxo-1,2,3,4,5,6-hexahydropyrido(2,3-d)pyridazin-8-yl)methyl)benzoate]: the Ki under setting [1] turned out to be 3.5 nM.
For the compound `O=C(NCc1cccnc1)c1cccc(Cc2n[nH]c(=O)c3c2CCCC3)c1` [Example 311, 3-((4-oxo-3,4,5,6,7,8-hexahydrophthalazin-1-yl)methyl)-N-(pyridin-3-ylmethyl)benzamide], the Ki under setting [1] came to 58 nM.
Consider `NC(=O)C1CCCN(C(=O)c2cccc(Cc3n[nH]c(=O)c4c3CCCC4)c2)C1` (stereo not shown) [drawing 44], for which the Ki (Table 3, H analogs versus para-F analogs) is 19 nM.
In the case of `O=C(c1cc(Cc2n[nH]c(=O)c3c2CCCC3)ccc1F)N1CCC(O)CC1` [Example 503, 4-{4-fluoro-3-[(4-hydroxypiperidin-1-yl)carbonyl]benzyl}-5,6,7,8-tetrahydrophthalazin-1(2H)-one], the Ki under setting [1] amounted to 1.3 nM.
As to `CN(C)C(=O)CN1CCN(C(=O)c2cc(Cc3n[nH]c(=O)c4c3NCCC4)ccc2F)CC1` [Example 560, 2-(4-{2-fluoro-5-[(5-oxo-1,2,3,4,5,6-hexahydropyrido[2,3-d]pyridazin-8-yl)methyl]benzoyl}piperazin-1-yl)-N,N-dimethylacetamide], the inhibition constant (Ki) under setting [1] amounted to 2 nM.
For the compound `O=C(Nc1cccc(Cc2n[nH]c(=O)c3c2CCCC3)c1)c1ccncc1` [Example 211, N-(3-((4-oxo-3,4,5,6,7,8-hexahydrophthalazin-1-yl)methyl)phenyl)isonicotinamide], under setting [1], the Ki amounted to 98 nM.

What is called Ki is the dissociation constant of the complex between target and ligand, obtained from inhibition or displacement.
